Results: patent publication US9346761B2, “Arginine methyltransferase inhibitors and uses thereof” (Epizyme, Inc., priority 2013, dated 2016)

How the values were obtained:
Full-length human PRMT6 = biological target: T1, Full-length human PRMT6 (Homo sapiens, UniProt Q96LA8); assay: PRMT6 biochemical assay (3H-SAM Flashplate, peptide substrate)
T1 construct: Flag-PRMT6-His was eluted with 200 ug/ml FLAG peptide in the same buffer; made in house; host or cells: HEK 293F cells (BacMam virus, pFastBacMam)
How it was run: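 Flag-PRMT6-His from baculovirus-infected cells, preincubated with compound 30 min at room temperature, then SAM/3H-SAM and biotinylated H4 36-50 peptide added; 20 mM Bicine pH 7.6, TCEP, BSG, Tween 20. Quenched with cold SAM, captured on streptavidin Flashplates; % inhibition from SAH/DMSO controls, 3- or 4-parameter IC50 fit.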

Human CARM1 (PRMT4) = biological target: T2, Human CARM1 (PRMT4) (Homo sapiens, UniProt Q86X55); assay: CARM1 biochemical assay (3H-SAM Flashplate, peptide substrate)
T2 construct: Flag-CARM1-His was eluted with 200 ug/ml FLAG peptide in buffer A; made in house; host or cells: HEK 293F cells (BacMam virus, pFastBacMam)
T2 sequence (Q86X55 with tags, fused parts or gaps isoform Q86X55-1): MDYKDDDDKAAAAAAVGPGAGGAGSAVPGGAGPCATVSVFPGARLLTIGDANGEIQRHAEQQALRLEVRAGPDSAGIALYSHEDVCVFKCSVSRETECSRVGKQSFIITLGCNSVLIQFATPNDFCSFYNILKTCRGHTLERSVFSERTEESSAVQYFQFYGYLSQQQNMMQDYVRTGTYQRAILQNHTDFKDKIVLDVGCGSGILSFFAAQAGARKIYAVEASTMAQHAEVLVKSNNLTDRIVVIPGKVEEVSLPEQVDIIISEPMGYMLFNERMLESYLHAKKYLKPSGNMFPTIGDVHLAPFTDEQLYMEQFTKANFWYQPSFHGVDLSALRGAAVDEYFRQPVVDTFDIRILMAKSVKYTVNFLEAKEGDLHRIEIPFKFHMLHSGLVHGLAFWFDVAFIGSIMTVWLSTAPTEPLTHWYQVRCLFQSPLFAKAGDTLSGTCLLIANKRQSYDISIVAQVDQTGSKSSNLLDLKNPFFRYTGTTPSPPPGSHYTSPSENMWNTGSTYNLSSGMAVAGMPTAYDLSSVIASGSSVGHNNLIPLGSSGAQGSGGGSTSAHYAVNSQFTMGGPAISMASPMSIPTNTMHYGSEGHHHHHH
Source text: General Materials. S-adenosylmethionine (SAM), S-adenosylhomocysteine (SAH), bicine, Tween20, dimethylsulfoxide (DMSO), bovine skin gelatin (BSG), sodium butyrate and Tris(2-carboxyethyl)phosphine hydrochloride solution (TCEP) were purchased from Sigma-Aldrich at the highest level of purity possible. ^3H-SAM was purchase from American Radiolabeled Chemicals with a specific activity of 80 Ci/mmol. 384-well streptavidin Flashplates were purchased from PerkinElmer.
Substrates. Peptide representative of human histone H3 residues 16-30 was synthesized with an N-terminal linker-affinity tag motif and a C-terminal amide cap by 21st Century Biochemicals.
Protein Expression. Recombinant baculovirus were generated according to Bac-to-Bac kit instructions (Life Technologies). […] Infections were carried out at 37° C. for 48 hours, harvested by centrifugation, and stored at −80° C. for purification.
Protein Purification. […] Column was washed with 500 mM NaCl in buffer A and Flag-CARM1-His was eluted with 200 ug/ml FLAG peptide in buffer A. Pooled fractions were dialyzed in 20 mM Tris, 150 mM NaCl, 5% glycerol and 1 mM DTT, pH 7.8.
General Procedure for CARM1 Enzyme Assays on Peptide Substrates. The assays were all performed in a buffer consisting of 20 mM Bicine (pH=7.6), 1 mM TCEP, 0.005% BSG, and 0.002% Tween 20, prepared on the day of use. […] DMSO (1 ul) was added to Columns 11, 12, 23, 24, rows A-H for the maximum signal control and 1 ul of SAH, a known product and inhibitor of CARM1, was added to columns 11, 12, 23, 24, rows I-P for the minimum signal control. A cocktail (40 ul) containing the CARM1 enzyme was added by Multidrop Combi (Thermo-Fisher). The compounds were allowed to incubate with CARM1 for 30 min at room temperature, then a cocktail (10 ul) containing ^3H-SAM and peptide was added to initiate the reaction (final volume=51 ul). […] The assays were stopped by the addition of non-radiolabeled SAM (10 ul) to a final concentration of 300 uM, which dilutes the ^3H-SAM to a level where its incorporation into the peptide substrate is no longer detectable. 50 ul of the reaction in the 384-well polypropylene plate was then transferred to a 384-well Flashplate and the biotinylated peptides were allowed to bind to the streptavidin surface for at least 1 hour before being washed once with 0.1% Tween20 in a Biotek ELx405 plate washer. The plates were then read in a PerkinElmer TopCount plate reader to measure the quantity of ^3H-labeled peptide bound to the Flashplate surface, measured as disintegrations per minute (dpm) or alternatively, referred to as counts per minute (cpm).
Where dpm=disintegrations per minute, cmpd=signal in assay well, and min and max are the respective minimum and maximum signal controls.
Where top and bottom are the normally allowed to float, but may be fixed at 100 or 0 respectively in a 3-parameter fit. The Hill Coefficient normally allowed to float but may also be fixed at 1 in a 3-parameter fit. Y is the % inhibition and X is the compound concentration.

T1 sequence (Q96LA8 with tags, fused parts or gaps): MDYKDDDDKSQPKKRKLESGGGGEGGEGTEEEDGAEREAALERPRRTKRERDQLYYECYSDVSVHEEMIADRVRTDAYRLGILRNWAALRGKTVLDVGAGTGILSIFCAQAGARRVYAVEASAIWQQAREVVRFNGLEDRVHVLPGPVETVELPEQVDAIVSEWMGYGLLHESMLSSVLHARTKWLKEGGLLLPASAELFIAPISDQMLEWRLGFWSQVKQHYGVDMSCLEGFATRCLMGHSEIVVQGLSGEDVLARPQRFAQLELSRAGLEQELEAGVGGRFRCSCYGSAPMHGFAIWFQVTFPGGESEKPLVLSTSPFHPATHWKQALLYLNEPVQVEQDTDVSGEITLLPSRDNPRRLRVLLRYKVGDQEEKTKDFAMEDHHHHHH

Row | SMILES | IC50 (Full-length human PRMT6) [µM] | IC50 (Human CARM1 (PRMT4)) [µM]
1 | CN(CCN)Cc1cn[nH]c1-c1ccc(F)cc1 [Compound 1] | < 0.1 | 1.01 to 3
2 | CNCCN(C)Cc1c[nH]nc1-c1ccc(F)cc1 [Compound 2, N^1-((3-(4-fluorophenyl)-1H-pyrazol-4-yl)methyl)-N^1,N^2-dimethylethane-1,2-diamine] | < 0.1 | 
3 | CN(CCN)Cc1cn(C)nc1-c1ccc(F)cc1 [Compound 3] | < 0.1 | 
4 | CN(CCN)Cc1cnn(C)c1-c1ccc(F)cc1 [Compound 4] | < 0.1 | 0.101 to 1
5 | CCN(CCNC)Cc1c[nH]nc1-c1ccc(F)cc1 [Compound 9] |  | 1.01 to 3
6 | CNCCN(C)Cc1cnn(C)c1-c1ccc(F)cc1 [Compound 10] |  | 1.01 to 3
7 | CNCCN(C)Cc1cn(CC2CCOCC2)nc1-c1ccc(F)cc1 [Compound 11] |  | > 10
8 | CNCCN(C)Cc1cnn(CC2CCOCC2)c1-c1ccc(F)cc1 [Compound 12] | 0.101 to 1 | 3.01 to 10
9 | CNCCN(C)Cc1c[nH]nc1-c1cccc(N)c1 [Compound 32] | < 0.1 | 1.01 to 3
10 | CNCCN(C)Cc1c[nH]nc1-c1ccc(CC#N)cc1 [Compound 34] | < 0.1 | 1.01 to 3
11 | CNCCN(C)Cc1c[nH]nc1-c1ccccc1O [Compound 35] | 0.101 to 1 | > 10
12 | CNCCN(C)Cc1c[nH]nc1-c1ccccc1Oc1ccccc1 [Compound 36] | 1.01 to 3 | > 10
13 | CNCCN(C)Cc1c[nH]nc1-c1cccc(OC(F)(F)F)c1 [Compound 39] | < 0.1 | 1.01 to 3
14 | CNCCN(C)Cc1c[nH]nc1-c1ccccc1NS(C)(=O)=O [Compound 41] | 3.01 to 10 | > 10
15 | CNCCN(C)Cc1c[nH]nc1-c1cccc(NC(C)=O)c1 [Compound 42] | < 0.1 | 1.01 to 3
16 | CNCCN(C)Cc1c[nH]nc1-c1cccc(C(C)=O)c1 [Compound 44] | < 0.1 | 1.01 to 3
17 | CNCCN(C)Cc1c[nH]nc1-c1ccc(C(=O)c2ccccc2)cc1 [Compound 45] | < 0.1 | < 0.1
18 | CNCCN(C)Cc1c[nH]nc1-c1ccccc1-c1ccccc1 [Compound 46] | 3.01 to 10 | > 10
19 | CNCCN(C)Cc1c[nH]nc1-c1ccc(-c2ccccc2)cc1 [Compound 47] | < 0.1 | < 0.1

Row | SMILES | IC50 (Full-length human PRMT6) [µM] | IC50 (Human CARM1 (PRMT4)) [µM]
20 | CNCCN(C)Cc1c[nH]nc1-c1ccccc1F [Compound 48] | < 0.1 | 3.01 to 10
21 | CNCCN(C)Cc1c[nH]nc1-c1ccc(F)cc1F [Compound 49] | < 0.1 | 3.01 to 10
22 | CNCCN(C)Cc1c[nH]nc1-c1cc(F)ccc1F [Compound 50] | < 0.1 | 3.01 to 10
23 | CNCCN(C)Cc1c[nH]nc1-c1ccc(F)c(F)c1 [Compound 51] | < 0.1 | 0.101 to 1
24 | CNCCN(C)Cc1c[nH]nc1-c1ccc(OC)c(F)c1 [Compound 52] | < 0.1 | 1.01 to 3
25 | CNCCN(C)Cc1c[nH]nc1-c1cc(Cl)ccc1OC [Compound 53] | 0.101 to 1 | > 10
26 | CNCCN(C)Cc1c[nH]nc1-c1cccc(OC)c1OC [Compound 54] | 0.101 to 1 | > 10
27 | CNCCN(C)Cc1c[nH]nc1-c1ccc(OC)cc1OC [Compound 55] | < 0.1 | 3.01 to 10
28 | CNCCN(C)Cc1c[nH]nc1-c1c(OC)cccc1OC [Compound 56] | 1.01 to 3 | > 10
29 | CNCCN(C)Cc1c[nH]nc1-c1cccc2ccccc12 [Compound 57] | < 0.1 | 1.01 to 3
30 | CNCCN(C)Cc1c[nH]nc1-c1ccc2ccccc2c1 [Compound 58] | < 0.1 | 0.101 to 1
31 | CNCCN(C)Cc1cn(CCC(O)CO)nc1-c1ccc(F)cc1 (centres unmarked) [Compound 59] | 0.101 to 1 | 3.01 to 10
32 | CCNCCN(C)Cc1c[nH]nc1-c1ccc(F)cc1 [Compound 60] | < 0.1 | > 10
33 | COCCn1cc(CN(C)CCN(C)C)c(-c2ccc(F)cc2)n1 [Compound 61] |  | > 10
34 | CCN(CCN)Cc1c[nH]nc1-c1ccc(F)cc1 [Compound 62] | < 0.1 | 0.101 to 1
35 | CCCN(CCN)Cc1c[nH]nc1-c1ccc(F)cc1 [Compound 63] | 1.01 to 3 | > 10
36 | COCCn1ncc(CN(C)CCN(C)C)c1-c1ccc(F)cc1 [Compound 64] | 1.01 to 3 | > 10
37 | CN(CCN)Cc1cnn(CCO)c1-c1ccc(F)cc1 [Compound 65] | 0.101 to 1 | 3.01 to 10
38 | CN(CCN)Cc1cn(CCO)nc1-c1ccc(F)cc1 [Compound 66] | 1.01 to 3 | 3.01 to 10

Row | SMILES | IC50 (Full-length human PRMT6) [µM] | IC50 (Human CARM1 (PRMT4)) [µM]
39 | CC(C)Oc1ccc(-c2n[nH]cc2CN(C)CCN)cc1 [Compound 67] |  | 0.101 to 1
40 | CN(CCN)Cc1c[nH]nc1-c1ccc(C#N)cc1 [Compound 68] | < 0.1 | 0.101 to 1
41 | CN(CCN)Cc1n[nH]cc1-c1ccc(F)cc1 [Compound 69] | < 0.1 | 3.01 to 10
42 | CN(CCN)Cc1c[nH]nc1-c1cccc(C#N)c1 [Compound 70] | < 0.1 | 3.01 to 10
43 | CN(CCN)Cc1c[nH]nc1-c1cccc(F)c1 [Compound 71] | < 0.1 | 0.101 to 1
44 | CN(CCN)Cc1c[nH]nc1-c1ccccc1F [Compound 72] | < 0.1 | 3.01 to 10
45 | CN(CCN)Cc1c[nH]nc1-c1ccccc1 [Compound 73] | < 0.1 | 1.01 to 3
46 | CN(CCN)Cc1c[nH]nc1-c1ccc(C(C)(C)C)cc1 [Compound 74] | < 0.1 | 3.01 to 10
47 | CC(C)N(CCN)Cc1c[nH]nc1-c1ccc(F)cc1 [Compound 75] | 1.01 to 3 | > 10
48 | CN(CCN)Cc1cn(CC(O)CO)nc1-c1ccc(F)cc1 (centres unmarked) [Compound 76] | 1.01 to 3 | > 10
49 | CN(CCN)Cc1cn(C2COC2)nc1-c1ccc(F)cc1 [Compound 77] | 0.101 to 1 | 3.01 to 10
50 | NCCN(Cc1c[nH]nc1-c1ccc(F)cc1)C1CC1 [Compound 78] | < 0.1 | > 10
51 | CN(CCN)Cc1cn(CC2COC2)nc1-c1ccc(F)cc1 [Compound 79] |  | > 10
52 | CN(CCN)Cc1cnn(CC2COC2)c1-c1ccc(F)cc1 [Compound 80] |  | > 10
53 | CN(CCN)Cc1cnn(C2COC2)c1-c1ccc(F)cc1 [Compound 81] | 0.101 to 1 | 1.01 to 3
54 | CN(CCN)Cc1c[nH]nc1-c1ccc(N2CCNCC2)cc1 [Compound 82] | 0.101 to 1 | 3.01 to 10
55 | CN(CCN)Cc1c(-c2ccc(C#N)cc2)cnn1C [Compound 84] |  | > 10
56 | CC(C)Oc1ccc(-c2n[nH]cc2CN(C)CCN)cc1Cl [Compound 168] | < 0.1 | 
